According to patent US8163766B2, “Beta-secretase modulators and methods of use” (Amgen Inc., priority 2005, dated 2012):

Test system: Aβ 40 in conditioned media of cells stably expressing Amyloid Precursor Protein (APP)
Experiment: BACE Cell-Based Assay (Aβ40 in conditioned medium, sandwich ELISA)
Details: 24 hours of incubation with the test compounds, Aβ 40 by sandwich ELISA, read-out: IC50 values in the cell-based assay (inhibition of Aβ 40)
Method in brief: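 APP-stably-expressing cells in DMEM/10% FBS exposed 24 h to 10-point compound dilutions starting at 100 or 10 μM, 0.1% DMSO final. Aβ40 in conditioned medium measured by sandwich ELISA (pAb40 capture, biotinylated 6E10 detection, Eu time-resolved fluorescence); IC50 from percent inhibition versus concentration.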

IC50 [µM]	Compound
≤ 5	CC(C)(C)Cc1ccc2c(c1)[C@@H](NC[C@@H](O)[C@H](Cc1ccccc1)NC(=O)c1cc(-c3ccccn3)c(=O)n(C3CCCC3)c1)CC(C)(C)N2 [Example 489, 1′-cyclopentyl-N-((1S,2R)-3-(((4S)-6-(2,2-dimethylpropyl)-2,2-dimethyl-1,2,3,4-tetrahydro-4-quinolinyl)amino)-2-hydroxy-1-(phenylmethyl)propyl)-2′-oxo-1′,2′-dihydro-2,3′-bipyridine-5′-carboxamide]
≤ 5	CC(C)(C)Cc1cnc2c(c1)[C@@H](NC[C@@H](O)[C@H](Cc1ccccc1)NC(=O)c1cc(C3CCCCO3)c(=O)n(C3CCCC3)c1)CC1(CCC1)O2 (stereo partly drawn) [Example 522, 1-cyclopentyl-N-((1S,2R)-3-(((4′S)-6′-(2,2-dimethyl-propyl)-3′,4′-dihydrospiro[cyclobutane-1,2′-pyrano[2,3-b]pyridin]-4′-yl)amino)-2-hydroxy-1-(phenyl-methyl)propyl)-6-oxo-5-(tetrahydro-2H-pyran-2-yl)-1,6-dihydro-3-pyridinecarboxamide]
≤ 5	CCc1ccc2c(c1)C(NC[C@@H](O)[C@H](Cc1ccccc1)NC(=O)c1ccc(=O)n(C3CCCC(c4ccccc4)C3)c1)CC1(CCCC1)O2 (stereo partly shown) [Example 12]
≤ 5	CCc1ccc2c(c1)C(NC[C@@H](O)[C@H](Cc1ccccc1)NC(=O)c1cc(NC(C)C)c(=O)n(C3CCCC3)c1)CC1(CCCC1)O2 (stereo partly drawn) [Example 18, 1-cyclopentyl-N-((2S,3R)-4-(6-ethyl-2,2-spirocyclopentylchroman-4-ylamino)-3-hydrodroxy-1-phenylbutan-2-yl)-5-(isopropylamino)-6-oxo-1,6-dihydropyridine-3-carboxamide]
≤ 5	CCc1ccc2c(c1)[C@@H](NCC(=O)[C@H](Cc1ccccc1)NC(=O)[C@@H]1CN(C(=O)N3CCCCC3)CCO1)CC(C)(C)O2 [Example 475, (2S)-N-((1S)-3-(((4S)-6-ethyl-2,2-dimethyl-3,4-dihydro-2H-chromen-4-yl)amino)-2-oxo-1-(phenylmethyl)propyl)-4-(1-piperidinylcarbonyl)-2-morpholinecarboxamide]
≤ 5	CCc1ccc2c(c1)C(NC[C@@H](O)[C@H](Cc1ccccc1)NC(=O)c1cc(-c3ccc(F)cc3)c(=O)n(C3CCCC3)c1)CC1(CCCC1)O2 (stereo partly shown) [Example 7]
≤ 5	CCc1ccc2c(c1)C(NC[C@@H](O)[C@H](Cc1ccccc1)NC(=O)c1cc(-c3cccc(F)c3)c(=O)n(C3CCCC3)c1)CC1(CCCC1)O2 (stereo partly shown) [Example 9]
≤ 5	CC(C)c1ccc2c(c1)[C@@H](NC[C@@H](O)[C@H](Cc1ccccc1)NC(=O)c1cc(N3CCCC3=O)c(=O)n(C3CCCC3)c1)CC1(CCCC1)O2 [Example 137, 1-cyclopentyl-N-((2S,3R)-4-((S)-2,2-spirocyclopentyl-6-iso-propylchroman-4-ylamino)-3-hydroxy-1-phenylbutan-2-yl)-6-oxo-5-(2-oxopyrrolidin-1-yl)-1,6-dihydropyridine-3-carboxamide]
≤ 5	CCc1ccc2c(c1)C(NC[C@@H](O)[C@H](Cc1ccccc1)NC(=O)c1cc(C3CCCCO3)c(=O)n(C3CCCC3)c1)CC1(CCCC1)O2 (stereo partly drawn) [Example 23, 1-cyclopentyl-N-((2S,3R)-4-(6-ethyl-2,2-spirocyclopentylchroman-4-ylamino)-3-hydrodroxy-1-phenylbutan-2-yl)-6-OXO-5-(tetrahydro-2H-pyran-2-yl)-1,6-dihydropyridine-3-carboxamide]
≤ 5	Cc1cccc(C(=O)N2CCO[C@H](C(=O)N[C@@H](Cc3ccccc3)[C@H](O)CN[C@H]3CC4(CCC4)Cc4ncc(C)cc43)C2)c1 [Example 494, (2S)-N-((1S,2R)-2-hydroxy-3-(((5′S)-3′-methyl-5′,8′-dihydro-6′H-spiro[cyclobutane-1,7′-quinolin]-5′-yl)amino)-1-(phenylmethyl)propyl)-4-((3-methylphenyl)carbonyl)-2-morpholinecarboxamide]
≤ 5	CC(C)n1cc(C(=O)N[C@@H](Cc2ccccc2)[C@H](O)CN[C@H]2CC(C)(C)Cc3sc(CC(C)(C)C)cc32)cc(-c2ccccn2)c1=O [Example 501, N-((1S,2R)-3-(((4S)-2-(2,2-dimethylpropyl)-6,6-dimethyl-4,5,6,7-tetrahydro-1-benzothien-4-yl)amino)-2-hydroxy-1-(phenylmethyl)propyl)-1′-(1-methylethyl)-2′-oxo-1′,2′-dihydro-2,3′-bipyridine-5′-carboxamide]
≤ 5	CCc1ccc2c(c1)[C@@H](NC[C@@H](O)[C@H](Cc1ccccc1)NC(=O)[C@H]1CN(C(C)=O)c3ccccc3O1)CC1(CCCC1)O2 [Example 50, (R)-4-acetyl-N-((2S,3R)-4-((S)-6-ethyl-2,2-spirocyclopentylchroman-4-ylamino)-3-hydroxy-1-phenylbutan-2-yl)-3,4-dihydro-2H-benzo[b][1,4]oxazine-2-carboxamide]
≤ 5	CCc1ccc2c(c1)[C@@H](NC[C@@H](O)[C@H](Cc1ccccc1)NC(=O)[C@@H]1CN(C(C)=O)c3ccccc3O1)CC1(CCCC1)O2 [Example 51, (S)-4-acetyl-N-((2S,3R)-4-((S)-6-ethyl-2,2-spirocyclopentylchroman-4-ylamino)-3-hydroxy-1-phenylbutan-2-yl)-3,4-dihydro-2H-benzo[b][1,4]oxazine-2-carboxamide]
≤ 5	CCc1ccc2c(c1)C(NC[C@@H](O)[C@H](Cc1ccccc1)NC(=O)c1cc(N3CCCC3)c(=O)n(C3CCCC3)c1)CC1(CCCC1)O2 (stereo partly drawn) [Example 17, 1-cyclopentyl-N-((2S,3R)-4-(6-ethyl-2,2-spirocyclopentylchroman-4-ylamino)-3-hydrodroxy-1-phenylbutan-2-yl)-6-OXO-5-(pyrrolidin-1-yl)-1,6-dihydropyridine-3-carboxamide]
≤ 5	CCc1ccc2c(c1)C(NC[C@@H](O)[C@H](Cc1ccccc1)NC(=O)c1cc(-n3cccn3)c(=O)n(C3CCCC3)c1)CC1(CCCC1)O2 (stereo partly shown) [Example 6]
≤ 5	CCc1ccc2c(c1)C(NC[C@@H](O)[C@H](Cc1ccccc1)NC(=O)c1cc(C3CCCO3)c(=O)n(C3CCCC3)c1)CC1(CCCC1)O2 (stereo partly drawn) [Example 24, 1-cyclopentyl-N-((2S,3R)-4-(6-ethyl-2,2-spirocyclopentylchroman-4-ylamino)-3-hydrodroxy-1-phenylbutan-2-yl)-6-OXO-5-(tetrahydrofuran-2-yl)-1,6-dihydropyridine-3-carboxamide]
≤ 5	CC1(C)C[C@H](NC[C@@H](O)[C@H](Cc2ccccc2)NC(=O)c2cc(-c3ccccn3)c(=O)n(C3CCCC3)c2)c2cc(Br)ccc2N1 [Example 482, N-((1S,2R)-3-(((4S)-6-bromo-2,2-dimethyl-1,2,3,4-tetrahydro-4-quinolinyl)amino)-2-hydroxy-1-(phenylmethyl)propyl)-1′-cyclopentyl-2′-oxo-1′,2′-dihydro-2,3′-bipyridine-5′-carboxamide]
≤ 5	CCCOC[C@H](NC(=O)c1cc(-c2ccccn2)c(=O)n(C2CCCC2)c1)[C@H](O)CN[C@H]1CC2(CCC2)Oc2ccc(CC)cc21 [Example 483, 1′-cyclopentyl-N-((1S,2R)-3-(((4S)-6-ethyl-3,4-dihydrospiro[chromene-2,1′-cyclobutan]-4-yl)amino)-2-hydroxy-1-((propyloxy)methyl)propyl)-2′-oxo-1′,2′-dihydro-2,3′-bipyridine-5′-carboxamide]
≤ 5	CCc1ccc2c(c1)[C@@H](NC[C@@H](O)[C@H](Cc1ccccc1)NC(=O)c1cc(-c3ccccc3F)c(=O)n3c1CCC3)CC1(CCC1)O2 [Example 126, N-((2S,3R)-4-((S)-6-Ethyl-2,2-spirocyclobutylchroman-4-ylamino)3-hydroxy-1-phenylbutan-2-yl)-6-(2-fluorophenyl)-5-oxo-1,2,3,5-tetrahydroindolizine-8-carboxamide]
≤ 5	CCc1ccc2c(c1)C(NC[C@@H](O)[C@H](Cc1ccccc1)NC(=O)c1ccc(=O)n(C3CCC(c4ccccc4)C3)c1)CC1(CCCC1)O2 (stereo partly shown) [Example 10]
≤ 5	CCc1cc2c(s1)CC(C)(C)C[C@@H]2NC[C@@H](O)[C@H](Cc1ccccc1)NC(=O)[C@H]1CN(C(=O)c2cccc(C)c2)CCO1 [Example 515, (2R)-N-((1S,2R)-3-(((4S)-2-ethyl-6,6-dimethyl-4,5,6,7-tetrahydro-1-benzothien-4-yl)amino)-2-hydroxy-1-(phenylmethyl)propyl)-4-((3-methylphenyl)carbonyl)-2-morpholinecarboxamide]
≤ 5	CC1(C)Cc2ccc(O[C@H]3CCOC3)cc2[C@@H](NC[C@@H](O)[C@H](Cc2ccccc2)NC(=O)c2cc(-c3ccccn3)c(=O)n(C3CCCC3)c2)C1 [Example 519, 1′-cyclopentyl-N-((1S,2R)-3-(((1S)-3,3-dimethyl-7-((3S)-tetrahydro-3-furanyloxy)-1,2,3,4-tetrahydro-1-naphthalenyl)amino)-2-hydroxy-1-(phenylmethyl)propyl)-2′-oxo-1′,2′-dihydro-2,3′-bipyridine-5′-carboxamide]
≤ 5	CCc1ccc2c(c1)[C@@H](NC[C@@H](O)[C@H](Cc1csc(C)n1)NC(=O)c1cc(-c3ccccn3)c(=O)n(C3CCCC3)c1)CC1(CCC1)O2 [Example 500, 1′-cyclopentyl-N-((1S,2R)-3-(((4S)-6-ethyl-3,4-dihydrospiro[chromene-2,1′-cyclobutan]-4-yl)amino)-2-hydroxy-1-((2-methyl-1,3-thiazol-4-yl)methyl)propyl)-2′-oxo-1′,2′-dihydro-2,3′-bipyridine-5′-carboxamide]
≤ 5	CCc1ccc2c(c1)[C@@H](NC[C@@H](O)[C@H](Cc1ccccc1)NC(=O)C1CN(C3CCCC3)c3ccccc3O1)CC1(CCCC1)O2 (stereo partly drawn) [Example 43, 4-Cyclopentyl-N-((2S,3R)-4-((S)-6-ethyl-2,2-spirocyclopentylchroman-4-ylamino)-3-hydroxy-1-phenylbutan-2-yl)-3,4-dihydro-2H-benzo[b][1,4]oxazine-2-carboxamide]
≤ 5	CC(C)Cn1cc(C(=O)N[C@@H](Cc2ccccc2)[C@H](O)CN[C@H]2CC3(CCCC3)Oc3ccc(Br)cc32)ccc1=O [Example 123]
